Values after ≈ are worked out from the molar mass of the structure shown. “Also recorded” adds a separate entry of the source.
Assays:
[1] = Stability in sodium acetate buffer pH 6 at two temperatures, reversed-phase HPLC; type: physicochemical; settings: for % Purity of the Compound, 6 Hours 25° C. / % Purity of the Compound, 6 Hours 40° C.: sodium acetate buffer pH 6, 6 hours; for Change in Main Peak % Area After 18 H Incubation, 25° C. / Change in Main Peak % Area After 18 H Incubation, 40° C.: sodium acetate buffer pH 6, 18 h; for % Purity of the Compound, 18 Hours 25° C. / % Purity of the Compound, 18 Hours 40° C.: sodium acetate buffer pH 6, 18 hours; for % Purity of the Compound, Initial: sodium acetate buffer pH 6, initial
Experimental: Three other compounds were also tested, Compound 2, Compound 3, and Compound 4. Compounds 2, 3, and 4 are modifications of Compound 1 at the sidechain of Cysteine 7. Compound 2 has a disulfide bond attached to Cysteine 7, Compound 3 has thioester bond attached to Cysteine 7, and Compound 4 has an ethyl group attached to the sidechain sulfur of Cysteine 7. The peptides were incubated in sodium acetate buffer pH 6 at two temperature conditions and then analyzed via reversed-phase HPLC. The chromatography performed was with an Ascentis Phenyl 2.7 micron column (4.6×150 mm). The binary gradient (1 ml/min) was 36% to 56% B in 40 minutes followed by an increase to 65% B in 5 minutes where A=0.1% trifluoroacetic acid in water and B=0.1% trifluoroacetic acid in acetonitrile.

[2] = In vitro stability of compounds in rat plasma (37° C.); type: in vitro ADME; settings: for half-life: rat, plasma
Experimental: The in vitro stability of Compounds 1-4 in rat plasma at 37° C. was examined to give an indication of stability in a whole animal model (Table 6).

[3] = Compound blood levels after subcutaneous administration in the rat (LC/MS); type: in vivo; settings: in vivo, sc, 7.5 mg/kg
Experimental: (§1) Compounds 1-4 were tested in rats to determine compound pharmacokinetics and hepcidin mimetic activity in vivo as measured by serum iron reduction. The effectiveness of the compounds for serum iron reduction should correlate with the treatment of iron metabolism disorders. Individual compounds, in this example and the following examples were generally formulated in DSPE-PEG(2000) (SUNBRIGHT® DSPE-020CN, NOF America Corporation) (30 mg/mL) and dosed subcutaneously at a compound dose of 7.5 mg/kg.
(§2) The compound was prepared according to the following typical preparation. The dosing solution was prepared (7.5 mg compound/mL in clear solution) by weighing the compound into vial and an aliquot of ethanol is added into the vial and mixture vortexed. DSPE-020CN was added and the solution was vortexed, and, if necessary, the mixture was heated at 37° C. for 10-15 minutes to fully dissolve the DSPE-020CN. The ethanol was evaporated with nitrogen gas stream for 1-3 hours. Sterile water was then added and the mixture was vortexed or, if necessary, sonicated to give a clear solution.
After subcutaneous injection compound quantities in blood were measured over the subsequent 24 hours via LC/MS.

physchem = type: physicochemical
Experimental: Different solvent compositions with different properties that are commonly used as a basis for pharmaceutical compositions were added to known quantities of the indicated compound and mixed. If a clear solution was not obtained, additional solvent was added and the solution mixed. […] For example “50-100” would indicate that the compound was not soluble at 100 mg/mL but upon additional solvent to have a final concentration of 50 mg/mL, the compound was soluble.

[4] = type: physicochemical
Experimental: An additional critical aspect in drug delivery is retention of solubility with time (physical stability), especially under refrigerated conditions. […] Unexpectedly, clear differences in physical stability were observed between Compound 5 and other compounds with only minor changes in sequence (e.g. Compounds 7 and 8). The combination of unexpected solubility of greater than 100 mg/mL in mildly acidic conditions and lack of significant changes in solution character after refrigeration, are unexpected and advantageous for a pharmaceutical product.

serum iron = test: Serum iron reduction after subcutaneous administration in the rat (hepcidin mimetic activity); type: in vivo; settings: 7.5 mg/kg
Experimental: as §1, §2
Serum iron was measured during the 24 h following subcutaneous administration in a rat of Compounds 1-4 and is summarized in FIG. 1. […] The observed effects on serum iron were unexpectedly similar in Compounds 1-3 despite the differences at Cysteine 7 and the differences in blood levels of the compounds (Table 7).

[5] = Solubility (mg/mL) at Ambient Temperature, 30% PEG 400
[6] = Solubility (mg/mL) at Ambient Temperature, 50% EtOH/water
[7] = Solubility (mg/mL) at Ambient Temperature, Water
[8] = pH 2.3, Solubility (mg/mL) at Ambient Temperature, 10% Tween 80 pH 2.3-2.8
[9] = pH 2.7, Solubility (mg/mL) at Ambient Temperature, 50% propylene glycol, pH 2.7
[10] = pH 4.5, Solubility (mg/mL) at Ambient Temperature, 10% Tween 80 pH 4.5-5.0
[11] = pH 5.5, Solubility (mg/mL) at Ambient Temperature, 10% Tween 80 pH 5.5-6.0

Compound | % Purity of the Compound, 6 Hours 25° C. [1] | % Purity of the Compound, 6 Hours 40° C. [1] | Change in Main Peak % Area After 18 H Incubation, 25° C. [1] | Change in Main Peak % Area After 18 H Incubation, 40° C. [1] | % Purity of the Compound, 18 Hours 25° C. [1] | % Purity of the Compound, 18 Hours 40° C. [1] | % Purity of the Compound, Initial [1] | In vitro plasma stability (Ratio of compound/benfluorex (std) degradation) [2] | half-life [2] | AUC(0-t) [3] | blood levels of Compound 1 (metabolite) after dosing the labelled compound [3] | solubility (physchem; [5]) | solubility (physchem; [6]) | solubility (physchem; [7]) | solubility (physchem; [8]) | solubility (physchem; [9]) | solubility (physchem; [10]) | solubility (physchem; [11]) | other results
CCCCCCCCCCCCCCCCNC(=O)CN(CC(N)=O)C(=O)CCCCCNC(=O)C(Cc1c[nH]c2ccccc12)NC(=O)C(CCCNC(=N)N)NC(=O)C(CSSC)NC(=O)C(CCCNC(=N)N)NC(=O)CC1CCCN1C(=O)C(NC(=O)C(Cc1c[nH]cn1)NC(=O)C(NC(=O)CNCC(=O)O)C(C)O)C(c1ccccc1)c1ccccc1 (stereo not shown) [Compound 2] | 99.6% | 99.4% | −0.2% | −0.1% | 99.3% | 99.4% | 99.5% | 0.98 | 0.667 h | 1010 ng·h/mL | unexpectedly higher than expected | 25 to 35 mg/mL (≈ 13.9 to 19.4 mM) | > 100 mg/mL | 50 to 100 mg/mL (≈ 27.7 to 55.4 mM) | 60 to 100 mg/mL (≈ 33.3 to 55.4 mM) | 50 to 100 mg/mL (≈ 27.7 to 55.4 mM) | 50 to 100 mg/mL (≈ 27.7 to 55.4 mM) | 25 to 30 mg/mL (≈ 13.9 to 16.6 mM) | degradation after 18 hours at 40° C. (in words) [1]: little degradation observed; significant degradation peaks observed by HPLC [1]: no significant degradation peak; change of solubility with pH (in words) (physchem; pH 4): marked decrease in solubility above pH 4; solubility (physchem; pH 5, Solubility (mg/mL) at Ambient Temperature, 2% Tween 80 pH 5): < 50 mg/mL; solubility (physchem; pH 6.4, Solubility (mg/mL) at Ambient Temperature, 2% Tween pH 6.4): < 10 mg/mL; Solution Appearance after 7 days Storage at 2-8° C., 2% Tween 80 pH 5 ([4]; 2% Tween 80 pH 5): Gel; Solution Appearance after 7 days Storage at 2-8° C., 2% Tween pH 6.4 ([4]; 2% Tween pH 6.4): Gel; Solution Appearance after 7 days Storage at 2-8° C., 10% Tween 80 pH 2.3-2.8 ([4]; 10% Tween 80 pH 2.3-2.8): Gel; Solution Appearance after 7 days Storage at 2-8° C., 10% Tween 80 pH 4.5-5.0 ([4]; 10% Tween 80 pH 4.5-5.0): Gel; Solution Appearance after 7 days Storage at 2-8° C., 30% PEG 400 ([4]; 30% PEG 400): Gel; Solution Appearance after 7 days Storage at 2-8° C., 50% EtOH/water ([4]; 50% EtOH/water): Gel; Solution Appearance after 7 days Storage at 2-8° C., 50% propylene glycol, pH 2.7 ([4]; 50% propylene glycol, pH 2.7): Gel; Solution Appearance after 7 days Storage at 2-8° C., Water ([4]; Water): Gel
CCCCCCCCCCCCCCCCNC(=O)CN(CC(N)=O)C(=O)CCCCCNC(=O)C(Cc1c[nH]c2ccccc12)NC(=O)C(CCCNC(=N)N)NC(=O)C(CSCC)NC(=O)C(CCCNC(=N)N)NC(=O)CC1CCCN1C(=O)C(NC(=O)C(Cc1c[nH]cn1)NC(=O)C(NC(=O)CNCC(=O)O)C(C)O)C(c1ccccc1)c1ccccc1 (stereo not shown) [Compound 4] | 96.8% | 96.6% | −0.5% | 0.3% | 96.2% | 97.0% | 96.7% | 2.74 | 1.87 h | 25600 ng·h/mL | No levels of Compound 1 were detected |  |  |  |  |  |  |  | degradation after 18 hours at 40° C. (in words) [1]: no evidence of degradation involving the cysteine; blood levels of the dosed compound (in words) [3]: very high blood levels; reduction in serum iron (in words) (serum iron): minimal reduction in serum iron after 24 h; also recorded: little activity in vivo
CCCCCCCCCCCCCCCCNC(=O)CN(CC(N)=O)C(=O)CCCCCNC(=O)[C@H](Cc1c[nH]c2ccccc12)NC(=O)[C@H](CCCNC(=N)N)NC(=O)[C@H](CSSC)NC(=O)[C@H](CCCNC(=N)N)NC(=O)CCNC(=O)[C@@H](NC(=O)[C@H](Cc1c[nH]cn1)NC(=O)[C@@H](NC(=O)CNCC(=O)O)[C@@H](C)O)C(c1ccccc1)c1ccccc1 [Compound 10] |  |  |  |  |  |  |  |  |  |  |  | < 10 mg/mL | < 10 mg/mL | < 25 mg/mL | 15 to 20 mg/mL (≈ 8.5 to 11.3 mM) | < 20 mg/mL | < 10 mg/mL | < 10 mg/mL | solubility characteristics compared to the other compounds (in words) (physchem): does not improve solubility characteristics
CCCCCCCCCCCCCCCCNC(=O)CN(CC(N)=O)C(=O)CCCCCNC(=O)[C@H](Cc1c[nH]c2ccccc12)NC(=O)[C@H](CCCNC(=N)N)NC(=O)[C@H](CSSC)NC(=O)[C@H](CCCNC(=N)N)NC(=O)C[C@@H]1CCCN1C(=O)[C@@H](NC(=O)[C@H](Cc1c[nH]cn1)NC(=O)[C@@H](NC(=O)CN(CC(=O)O)C(=O)CNC(C)=O)[C@@H](C)O)C(c1ccccc1)c1ccccc1 [Compound 9] |  |  |  |  |  |  |  |  |  |  |  | 20 to 35 mg/mL (≈ 10.5 to 18.4 mM) | > 100 mg/mL | 50 to 100 mg/mL (≈ 26.3 to 52.5 mM) | 30 to 50 mg/mL (≈ 15.8 to 26.3 mM) | 30 to 50 mg/mL (≈ 15.8 to 26.3 mM) | 25 to 50 mg/mL (≈ 13.1 to 26.3 mM) | 25 to 35 mg/mL (≈ 13.1 to 18.4 mM) | 
CCCCCCCCCCCCCCCCNC(=O)CN(CC(N)=O)C(=O)CCCCCNC(=O)[C@H](Cc1c[nH]c2ccccc12)NC(=O)[C@H](CCCNC(=N)N)NC(=O)[C@H](CSSC)NC(=O)[C@H](CCCNC(=N)N)NC(=O)C1CCN(C(=O)[C@@H](NC(=O)[C@H](Cc2c[nH]cn2)NC(=O)[C@@H](NC(=O)CNCC(=O)O)[C@@H](C)O)C(c2ccccc2)c2ccccc2)CC1 [Compound 8] |  |  |  |  |  |  |  |  |  |  |  | 25 to 35 mg/mL (≈ 13.9 to 19.4 mM) | > 100 mg/mL | 50 to 100 mg/mL (≈ 27.7 to 55.4 mM) | 40 to 70 mg/mL (≈ 22.2 to 38.8 mM) | 30 to 50 mg/mL (≈ 16.6 to 27.7 mM) | > 50 mg/mL | 50 to 100 mg/mL (≈ 27.7 to 55.4 mM) | 
CCCCCCCCCCCCCCCCNC(=O)CN(CC(N)=O)C(=O)CCCCCNC(=O)C(Cc1c[nH]c2ccccc12)NC(=O)C(CCCNC(=N)N)NC(=O)C(CSC(C)=O)NC(=O)C(CCCNC(=N)N)NC(=O)CC1CCCN1C(=O)C(NC(=O)C(Cc1c[nH]cn1)NC(=O)C(NC(=O)CNCC(=O)O)C(C)O)C(c1ccccc1)c1ccccc1 (stereo not shown) [Compound 3] | 96.9% | 84.9% | −2.3% | −30% | 95.1% | 67.2% | 97.3% | 1.78 | 1.22 h | 12200 ng·h/mL | comparable to the levels observed when just Compound 1 was dosed |  |  |  |  |  |  |  | degradation after 18 hours at 40° C. [1]: 30%; significant degradation peaks observed by HPLC [1]: multiple major peaks; blood levels relative to those observed in Compound 1 [3]: 5-9 times
CCCCCCCCCCCCCCCCNC(=O)CN(CC(N)=O)C(=O)CCCCCNC(=O)[C@H](Cc1c[nH]c2ccccc12)NC(=O)[C@H](CCCNC(=N)N)NC(=O)[C@H](CSSC)NC(=O)[C@H](CCCNC(=N)N)NC(=O)[C@@H]1CCCN(C(=O)[C@@H](NC(=O)[C@H](Cc2c[nH]cn2)NC(=O)[C@@H](NC(=O)CNCC(=O)O)[C@@H](C)O)C(c2ccccc2)c2ccccc2)C1 [Compound 7] |  |  |  |  |  |  |  |  |  |  |  | > 35 mg/mL | > 100 mg/mL | 50 to 100 mg/mL (≈ 27.7 to 55.4 mM) | > 100 mg/mL | > 100 mg/mL | > 50 mg/mL | 50 to 100 mg/mL (≈ 27.7 to 55.4 mM) | 

Source: US9315545B2, “Hepcidin mimetic peptides and uses thereof” (MERGANSER BIOTECH, INC., priority 2014, dated 2016)
